In patent US20050054620A1, “Paricalcitol as a chemotherapeutic agent” (priority 2003, published 2005):

Legend:
HL-60 cells [1] = test: Cell cycle analysis by flow cytometry; format: cell-based, human; details: 10^−7M, 72 hr
Method: For cell cycle analysis, cells were exposed to 10^−7M 1,25(OH)2D3, 10^−7M paricalcitol or vehicle control for either 3 or 4 days. Total cells, both in suspension and adherent, were collected, washed, suspended in cold PBS. Then cells were fixed in 75% chilled methanol and stained with propidium iodine. Cell cycle status was analyzed on a Becton Dickinson Flow Cytometer.
Cell cycle analysis was performed as follows: after treatment of 5×10^4 of cells with a selected compound, cells were collected, washed and suspended in cold PBS. Cells were fixed in chilled 75% methanol and stained with propidium iodine. Cell cycle status was analyzed on a Becton Dickinson Flow Cytometer used standart protocols.

HL-60 cells [2] = test: Morphological analysis, Wright-Giemza stain; format: cell-based, human; details: 10^−7M, 120 hrs
Method: (A) Cell cycle analysis of HL-60 cells by flow cytometry. HL-60 cells were cultured with paricalcitol (10^−7 M) for 72 hrs, harvested and stained with propidium iodine (PI). Control cells were treated with vehicle alone. Results represent the mean±SD of three independent experiments. (B) HL-60 or NB-4 cells were treated with either paricalcitol (10^−7 M) or 1,25(OH)2D3 (10^−7 M). Cell lysates were prepared after 72 hrs and analyzed by Western blot with a series of antibodies (p21WAF1, p27KIP1, PTEN). Control cells were treated with vehicle alone. The amounts of protein were normalized by comparison to levels of GAPDH. […] Dashed line indicates negative control antibody; black area, CD14 antibody. CD14 positive cells are in the area shown by M2. (D) HL-60 cells were cultured with paricalcitol (10^−7 M) for 120 hrs, fixed and stained with Wright-Giemza stain for morphological analysis.

[3] = tested on: HT-29 human colon cancer tumors; test: HT-29 tumors growing in nude mice; format: in vivo; details: 100 ng/mouse intraperitoneally 3 days a week, vs diluant control
Method: HT-29 cells were bilaterally injected subcutaneously into nude mice, forming two tumors per mouse. The mice were divided randomly into control and experimental groups. […] In FIG. 5A, tumor volumes were measured every week. The mean volume±SD of 10 tumors in each group is shown. […] In FIG. 5B, After 4 weeks of therapy, tumors were removed from each group and weighed. […] For the mouse studies, BNX nu/nu nude mice at 8 weeks of age were purchased from Harlan Sprangue Dawley, Inc. (Indianapolis, Ind.) and their care was in accord with the guidelines of Cedars-Sinai Research Institute. They were maintained in pathogen-free conditions with irradiated chow. […] The mice were blindly randomized to the experimental and control groups. Treatment was started on the day after the injection of […] cells and continued for 6 weeks. […] Tumor sizes were measured every week and calculated by the formula: A (length)×B (width)×C (height)×0.5236. […] All mice were euthanized at the end of the study, and the tumors were fixed in 10% neutral buffered formalin and embedded in paraffin for histological analysis. The data were analyzed by Student's t test.

[4] = Serum calcium in tumor-bearing nude mice; format: in vivo; details: 100 ng/mouse i.p. 3 days a week, after 4 weeks; control 9.5±0.4, not significantly different (p=0.17)
Method: For the mouse studies, BNX nu/nu nude mice at 8 weeks of age were purchased from Harlan Sprangue Dawley, Inc. (Indianapolis, Ind.) and their care was in accord with the guidelines of Cedars-Sinai Research Institute. They were maintained in pathogen-free conditions with irradiated chow. A total of 1×10^6 HT-29 cells in 0.1 ml of Matrigel (Collaborative Biological Products, Bedford, Mass.) were injected s.c. into bilateral flanks of each mouse, resulting in the formation of two tumors per mouse. The mice were blindly randomized to the experimental and control groups. Treatment was started on the day after the injection of […] cells and continued for 6 weeks. The control mice (five) received diluant only and the experimental mice (five) received paricalcitol [100 ng/day, intraperitoneally, 3 days per week (M,W,F)]. Tumor sizes were measured every week and calculated by the formula: A (length)×B (width)×C (height)×0.5236. After 4 weeks, blood was collected for serum calcium. All mice were euthanized at the end of the study, and the tumors were fixed in 10% neutral buffered formalin and embedded in paraffin for histological analysis. The data were analyzed by Student's t test.
To measure the serum calcium levels in mice, Sigma Diagnostics calcium reagent (Sigma, MO) containing o-cresolphthalein, which complexes with calcium to form a purple colored complex, was used.

[5] = tested on: THP-1 myeloid leukemia cells; test: MTT assay; format: cell-based, human; details: 4 day exposure
24-hydroxylase mRNA = test: RT-PCR of 24-hydroxylase mRNA in NB-4 cells; format: cell-based, human; details: paricalcitol 0.1 μM, arsenic trioxide 0.6 μM, after 24 hrs
Method: HL-60 and NB-4 myeloid leukemia cell lines were treated with paricalcitol (0.01 μM for HL-60, 0.1 μM for NB-4) and/or arsenic trioxide (0.8 μM for HL-60, 0.6 μM for NB-4). Control cells were treated with vehicle alone. […] Cell lysates were also made and used for Western blot which was probed with antibodies to C/EBPβ. (B) Cell lysate of HL-60 cells were made after 3 days and used for Western blot which was probed sequentially with antibodies to Bcl-2, BclXL and Bax (C) Cell lysates of HL-60 cells were made after 1, 2 or 3 days and used for Western blot which was probed sequentially with antibodies to phosphorylated ERK. (D) After pretreatment either with or without […] of PD98059 for 1 hour, HL-60 cells were treated with paricalcitol (0.01 μM) and/or arsenic trioxide (0.8 μM) for 2 days. Control cells were treated with vehicle alone. CD14 expression was measured by flow cytometry.
In FIG. 6B, HT-29 colon cancer cells were treated with paricalcitol (10^−7M) for 0, 6, 12 or 24 hrs and RNA was harvested. Expression of 24 hydroxylase mRNA was analysed by RT-PCR. The amounts of mRNA were normalized by comparison to 18S RNA. In FIG. 6C, mononuclear cells extracted from spleens of either wild type or VDR knock-out mice were treated with paricalcitol (10^−8M) for either 12 or 24 hrs, and RNA was harvested. Expression of 24 hydroxylase mRNA was analysed by RT-PCR. […]

RPMI-8226 myeloma cells = details: 4 days exposure
[6] = humans, cited from earlier work

**Q.** Which “decrease of cells in S phase” value (HL-60 cells [1]) does the source give for `C[C@H](/C=C/[C@H](C)C(C)(C)O)[C@H]1CC[C@H]2/C(=C/C=C3C[C@@H](O)C[C@H](O)C3)CCC[C@]12C` [paricalcitol, 19-nor-1,25, (OH)2D3] here?
**A.** 33%

**Q.** What about the “increase of cells in G0/G1 phase” value (HL-60 cells [1]) of the same compound?
**A.** 16%

**Q.** What about the “increase of cells in G2/M phase” value (HL-60 cells [1]) of the same compound?
**A.** 17%

**Q.** What about the morphological examination (HL-60 cells [2]) of the same compound?
**A.** monocytic differentiation

**Q.** What about the mean tumor weights ([3]; after 4 weeks, p=0.0004) of the same compound?
**A.** significantly suppressed

**Q.** And the “growth of colon cancer tumors (tumor volumes)” value ([3]; p=0.03)?
**A.** significantly suppressed

**Q.** What about the serum calcium levels [4] of the same compound?
**A.** 10.2 ± 0.7 mg/dL

**Q.** And the “antiproliferative effect by MTT assay” value [5]?
**A.** sensitive

**Q.** And the “mRNA levels of 24-hydroxylase” value (24-hydroxylase mRNA)?
**A.** increased

**Q.** What about the antiproliferative effect (RPMI-8226 myeloma cells) of the same compound?
**A.** somewhat less than the effect on NCI-H929 cells

**Q.** What about the peak serum levels [6] of the same compound?
**A.** 1850 pg/mL

**Q.** What about the serum half-life ([6]; paricalcitol compared with 1,25(OH)2D3) of the same compound?
**A.** similar
